Usually AC50 stands for the concentration at which the activity in the assay is half-maximal.

This is an account of results in paper PMC8765781, “A platform of assays for the discovery of anti-Zika small-molecules with activity in a 3D-bioprinted outer-blood-retina model” (PLoS ONE, 2022).

The test system of this assay is wild-type ZIKV (Ugandan MR766 strain) in Vero cells. Put plainly: ZIKV cytopathic effect (CPE) inhibition qHTS assay, CellTiter-Glo readout. Type of assay: cell-based, Zika virus. The following applies: for AC50 / Emax: Zika virus, Vero; for Emax: read-out: Max response. Background: Cytopathic effects are the visible damage that an infection or toxin causes in cultured cells.

Where [1] appears, read: read-out: Log AC50 (M) (converted).

SMILES strings stand for the structures. Like-named read-outs stand apart in the source and are kept apart here.

Compound `COc1ccc2c(OC)c3ccoc3nc2c1OC` [NCGC00016333-05] yielded an Efficacy of -23.663 and an AC50 of 1.84e-05 M. Further, the AC50 under setting [1] is 1.84e-05 M.
`Cc1cc(N2CCN(C(=O)Oc3ccc(-c4ccccc4)cn3)CC2)c2ccccc2n1` [NCGC00386928-01]: the “CC-v2 (curve class classification of the dose response curve)” value (“CC-v2” for short) is reported as -3 and the Efficacy was -62.282.
`COc1cc2c(NC3CCN(C(C)C)CC3)nc(C3CCCCC3)nc2cc1OCCCN1CCCC1` [NCGC00189220-03] showed an Efficacy of -26.68 and an AC50 of 7.31e-05 M. The AC50 under setting [1] is 7.31e-05 M.
With `Cc1cc(C(=O)Nc2cccc(C(=O)Nc3cccc(C(F)(F)F)c3)c2)on1` [NCGC00387256-02], the Efficacy is -18.226 and the AC50 is 7.31e-05 M. Moreover, the AC50 under setting [1] was 7.31e-05 M.
Consider `C/C=C(/C)C(=O)OC1CC(C)(C)CC2C3=CCC4C5(C)CCC(O[C@@H]6O[C@H](C(=O)O)[C@@H](O)[C@H](O)[C@H]6O[C@@H]6O[C@H](CO)[C@H](O)[C@H](O[C@@H]7OC[C@H](O)[C@H](O)[C@H]7O[C@@H]7O[C@H](CO)[C@@H](O)[C@H](O)[C@H]7O)[C@H]6O)C(C)(C)C5CCC4(C)C3(C)C(O)C(O)C12CO` (stereo partly drawn) [NCGC00386019-01], for which the Efficacy is reported as -41.4 and the AC50 turned out to be 9.77e-06 M. Also, under setting [1], the AC50 is 9.77e-06 M.
On to `Cc1cc(=O)oc2c(C=O)c(O)ccc12` [NCGC00379137-01], for which the “CC-v2” value was -2.2, the Efficacy is -45.072 and the concentration at half-maximal activity (AC50) stood at 5.8e-05 M. In addition, the AC50 under setting [1] is 5.8e-05 M.
As for `Cc1nc[nH]c1C1CCN(c2nc3cccc4c3n2CCC4=O)CC1` [NCGC00370838-01], the “CC-v2” value was -3, the Efficacy is given as -41.62 and the AC50 was found to be 1.84e-05 M. Further, the AC50 under setting [1] is 1.84e-05 M.
`OCCCNc1cc(-c2ccnc(Nc3cccc(Cl)c3)n2)ccn1` [NCGC00346940-02]: the “CC-v2” value was -2.1, the Efficacy is -105.653 and the half-maximal activity concentration (AC50) was 6.51e-05 M. Also, the AC50 under setting [1] was 6.51e-05 M.
On to `CC(/C=C/C=C(\C)C(=O)O[C@@H]1O[C@H](CO[C@@H]2O[C@H](CO)[C@@H](O)[C@H](O)[C@H]2O)[C@@H](O)[C@H](O)[C@H]1O)=C\C=C\C=C(C)\C=C\C=C(/C)C(=O)O[C@@H]1C[C@](O)(C(=O)O)C[C@@H](O)[C@H]1OC(=O)/C=C/c1ccc(O)c(O)c1` [NCGC00384868-01], for which the “CC-v2” value is -3, the Efficacy is given as -78.383 and the activity was half-maximal at 6.93e-06 M (AC50). Under setting [1], the AC50 is 6.93e-06 M.
With `COc1cc(O)c2c(c1)/C=C/C[C@H](O)[C@H](O)C(=O)/C=C\C[C@H](C)OC2=O` [NCGC00186421-07], the “CC-v2” value is -3 and the Efficacy was -83.256.
For the compound `CC(C)c1c(O)ccc2c1CC[C@H]1C(C)(C)CCC[C@]21C` [NCGC00385162-01], the Curve class was -3, the Efficacy is given as -41.688, the AC50 amounted to 5.8e-05 M and the Emax was -36.8%. Besides, where the note is “read-out: Log AC50 (converted)”, the AC50 is 5.8e-05 M.
In turn, `CCCOc1ccc([S+](=O)([O-])N2CCN(CCO)CC2)cc1-c1nc2c(CCC)cn(CC)c2c(=O)[nH]1` [NCGC00378703-02] displayed an Efficacy of -30.503 and an AC50 of 5.8e-05 M. Further, under setting [1], the AC50 is 5.8e-05 M.
`COC(=O)[C@@]1(C)C(=O)C=C[C@]2(C)c3c(O)cc(C(C)C)cc3[C@H](O)[C@@H](OC(C)=O)C12` (stereo partly drawn) [NCGC00385132-01]: the “CC-v2” value is -3, the Efficacy is on record as -68.661 and half-maximal activity (AC50) was put at 1.42e-05 M. For the same compound, the AC50 under setting [1] was 1.42e-05 M.
On to `CC(C)C(=O)c1cn(CC(=O)COc2ccc(Oc3ccccc3)cc2)c2ccc(C(=O)O)cc12` [NCGC00378619-01], for which the Efficacy is listed as -17.195 and half-maximal activity (AC50) was put at 1.3e-05 M. Further, the AC50 under setting [1] was 1.3e-05 M.
`CN1CCC(COc2cnc(-c3cccc(Cn4nc(-c5cccc(C#N)c5)ccc4=O)c3)nc2)CC1` [NCGC00345793-08] had an Efficacy of -35.437 and an AC50 of 6.51e-05 M. Under setting [1], the AC50 is 6.51e-05 M.
On to `C=C(C)[C@@H]1CC=C(COC(=O)NC(=O)c2ncn3c(=O)n(C)nnc23)CC1` [NCGC00386754-01], for which the “CC-v2” value is -3, the Efficacy is listed as -41.908 and the AC50 was 6.51e-05 M. Besides, the half-maximal activity concentration (AC50) under setting [1] is 6.51e-05 M.
Consider `CC1CCC2C(C)(C)C(O)CCC2(C)C12Cc1c(O)cc3c(c1O2)CNC3=N` (stereo not drawn) [NCGC00386084-01], for which the Efficacy was -59.279 and the AC50 amounted to 5.08e-07 M. The AC50 under setting [1] is 5.08e-07 M.
In the case of `Cc1cc2c(F)c(Oc3ncnn4cc(OCC(C)O)c(C)c34)ccc2[nH]1` (stereo not drawn) [NCGC00389770-01], the Efficacy was -29.933 and the AC50 came to 6.51e-05 M. The AC50 under setting [1] is 6.51e-05 M.
As for `COc1ccc(CC2C(=O)NC(C)C(=O)N(C)C3Cc4ccc(cc4)Oc4cc(ccc4OC4OC(CO)C(O)C(O)C4O)CC(C(=O)NC(C)C(=O)NC(CCC(=O)O)C(=O)N2C)N(C)C3=O)cc1` (stereo not drawn) [NCGC00385295-01], the “CC-v2” value is -2.2, the Efficacy is given as -76.149 and the AC50 was 4.91e-06 M. Moreover, the AC50 under setting [1] was 4.91e-06 M.
Compound `CO[C@H]1[C@H](O)[C@H](O[C@H]2CC[C@]3(C)C4CC[C@]5(C)[C@H](C6=CC(=O)OC6)CC[C@]5(O)C4CC[C@@H]3C2)O[C@@H](C)[C@@H]1O` (stereo partly drawn) [NCGC00180641-02] gave an Efficacy of -18.714 and an AC50 of 1e-06 M. For the same compound, the AC50 under setting [1] was 1e-06 M.
Regarding `CC1CCC2(C(=O)OC3OC(CO)C(O)C(O)C3O)CCC3(C)C(=CCC4C5(C)CCC(O)C(C)(CO)C5CCC43C)C2C1(C)O` (stereo not drawn) [NCGC00385137-01], the “CC-v2” value is -3, the Efficacy is -66.194 and half-maximal activity (AC50) was put at 6.11e-06 M. Also, the AC50 under setting [1] is 6.11e-06 M.
Turning to `C=C(C(=O)O[C@H]1C/C(C)=C/CC/C(CO)=C/[C@H]2OC(=O)C(=C)[C@H]12)C(O)CO` (stereo partly drawn) [NCGC00385206-01], the “CC-v2” value is reported as -3, the Efficacy is -104.223 and the AC50 is 4.53e-05 M. Besides, the AC50 under setting [1] was 4.53e-05 M.
Regarding `O=C(O)c1ccc2c(c1)nc(Nc1cccc(Cl)c1)c1ccncc12` [NCGC00485907-01], the Efficacy is recorded as -41.903 and the AC50 is 6.51e-05 M. In addition, the AC50 under setting [1] was 6.51e-05 M.
Regarding `O=c1c2ccccc2nc2n1CCc1c-2[nH]c2ccccc12` [NCGC00015892-08], the “CC-v2” value is listed as -2.2, the Efficacy is listed as -34.451 and the activity was half-maximal at 4.11e-05 M (AC50). Further, under setting [1], the AC50 is 4.11e-05 M.
Turning to `C/C(=C\CCC(C)CCO)C(=O)OC1(C)CCC2C(C(=O)O)=COC(OC3OC(CO)C(O)C(O)C3O)C21` (stereo not drawn) [NCGC00380886-01], the Curve class is on record as -3, the Efficacy is listed as -68.93, the activity was half-maximal at 1.12e-05 M (AC50) and the Emax was -7.99%. Besides, the AC50 (read-out: Log AC50 (converted)) is 1.12e-05 M.
For the compound `COc1cc2c(cc1O)C1(Cc3ccc4c(c3C1O)OCO4)[N+](C)([O-])CC2` (stereo not drawn) [NCGC00385471-01], the Efficacy is on record as -50.391 and the AC50 turned out to be 6.4e-07 M. Further, the concentration at half-maximal activity (AC50) under setting [1] is 6.4e-07 M.
